Patent publication US20230271950A1, “ANTIBACTERIAL PICOLINAMIDE COMPOUNDS” (University of Notre Dame Du Lac, priority 2020, published 2023)
Converted amounts (≈) assume the structure as drawn. Where two headings read alike, the source gives them in different places.

Columns and labels:
[1] = tested on: C. difficile; assay: MIC by broth microdilution against C. difficile strains; type: cell-based, Clostridioides difficile; conditions: for MIC: Table 9, read-out: MIC
[2] = tested on: Bifidobacterium longum; assay: MIC against gut bacterium Bifidobacterium longum; type: cell-based; conditions: Bifidobacterium longum, Bifidobacterium longum strain HM-846, read-out: MIC
[3] = tested on: Fecal microbiota preparation; assay: MIC against fecal microbiota preparation; type: cell-based; conditions: Fecal microbiota preparation from OpenBiome tested at 1000-fold dilution
Method: Minimum inhibitory concentrations (MIC). MICs for C. difficile strains and the common gut bacteria were determined using broth microdilution techniques as reported earlier using brucella broth supplemented with hemin and vitamin K or supplemented BHIS broth. Lactobacillus MRS broth was used for lactobacillus strains. Sodium lactate was supplemented in the media for Veillonella sp. […] All incubations, unless specified otherwise, were carried out at 24 h or 48 h at 37° C. in an anaerobic chamber (Whitley DG250 workstation, Microbiology International, Frederick, Md.). Corynebacterium and Lactobacillus species were incubated aerobically.

[4] = tested on: Veillonella sp. HM-49; assay: MIC against gut bacterium Veillonella sp.; type: cell-based
[5] = tested on: MRSA (NRS70, NRS119); assay: MIC against MRSA strains; type: cell-based, Staphylococcus aureus; conditions: Staphylococcus aureus, read-out: MIC
[6] = tested on: Lactobacillus reuteri; assay: MIC against gut bacterium Lactobacillus reuteri; type: cell-based
[7] = tested on: Corynebacterium spp.; assay: MIC against gut bacterium Corynebacterium spp.; type: cell-based; conditions: Corynebacterium, Corynebacterium spp. strain HM-784
[8] = tested on: Lactobacillus gasseri; assay: MIC against gut bacterium Lactobacillus gasseri; type: cell-based
[9] = tested on: S. aureus ATCC29213; assay: MIC against MSSA; type: cell-based, Staphylococcus aureus; conditions: Staphylococcus aureus; S. aureus ATCC29213; Table 1; read-out: MIC
[10] = tested on: Fusobacterium nucleatum; assay: MIC against gut bacterium Fusobacterium nucleatum; type: cell-based; conditions: Fusobacterium nucleatum, Fusobacterium nucleatum strain HM-992, read-out: MIC
[11] = tested on: Eubacterium sp.; assay: MIC against gut bacterium Eubacterium sp.; type: cell-based; conditions: Eubacterium, Eubacterium sp. strain HM-178, read-out: MIC

SMILES: CCc1c(Cl)c(O)c(Cl)c(O)c1C(=O)O[C@H]1[C@H](O)[C@H](OC)[C@H](OC/C2=C\C=C\C[C@H](O)/C(C)=C/[C@H](CC)[C@@H](O[C@@H]3OC(C)(C)[C@@H](OC(=O)C(C)C)[C@H](O)[C@@H]3O)/C(C)=C/C(C)=C/C[C@@H]([C@@H](C)O)OC2=O)O[C@@H]1C [FDX, fidaxomicin, reference compound]
- MIC ([1]; Clostridioides difficile, C. difficile NR-13437): 0.25 µg/mL (≈ 0.236 µM)
- MIC ([1]; Clostridioides difficile, C. difficile NR-13438): 0.06 µg/mL (≈ 0.0567 µM)
- MIC ([1]; Clostridioides difficile, C. difficile NR-13553): ≤ 0.03 µg/mL
- MIC ([1]; Clostridioides difficile, C. difficile NR-32882): 0.06 µg/mL (≈ 0.0567 µM)
- MIC ([1]; Clostridioides difficile, C. difficile NR-32884): 0.03 µg/mL (≈ 0.0284 µM)
- MIC ([1]; Clostridioides difficile, C. difficile NR-32885): 0.25 µg/mL (≈ 0.236 µM)
- MIC ([1]; Clostridioides difficile, C. difficile NR-32886): 0.03 µg/mL (≈ 0.0284 µM)
- MIC ([1]; Clostridioides difficile, C. difficile NR-32888): 0.03 µg/mL (≈ 0.0284 µM)
- MIC ([1]; Clostridioides difficile, C. difficile NR-32889): 0.25 µg/mL (≈ 0.236 µM)
- MIC ([1]; Clostridioides difficile, C. difficile NR-32890): 0.06 µg/mL (≈ 0.0567 µM)
- MIC ([1]; Clostridioides difficile, C. difficile NR-32891): 0.03 µg/mL (≈ 0.0284 µM)
- MIC ([1]; Clostridioides difficile, C. difficile NR-32892): 0.03 µg/mL (≈ 0.0284 µM)
- MIC ([1]; Clostridioides difficile, C. difficile NR-32895): 0.03 µg/mL (≈ 0.0284 µM)
- MIC ([1]; Clostridioides difficile, C. difficile NR-32896): 0.03 µg/mL (≈ 0.0284 µM)
- MIC ([1]; Clostridioides difficile, C. difficile NR-32897): 0.03 µg/mL (≈ 0.0284 µM)
- MIC ([1]; Clostridioides difficile, C. difficile NR-32900): 0.03 µg/mL (≈ 0.0284 µM)
- MIC ([1]; Clostridioides difficile, C. difficile NR-32903): 0.03 µg/mL (≈ 0.0284 µM)
- MIC ([1]; Clostridioides difficile, C. difficile NR-32904): 0.03 µg/mL (≈ 0.0284 µM)
- MIC ([1]; Clostridioides difficile, C. difficile NR-49277): 0.06 µg/mL (≈ 0.0567 µM)
- MIC ([1]; Clostridioides difficile, C. difficile NR-49278): 0.25 µg/mL (≈ 0.236 µM)
- MIC ([1]; Clostridioides difficile, C. difficile NR-49279): 0.25 µg/mL (≈ 0.236 µM)
- MIC ([1]; Clostridioides difficile, C. difficile NR-49281): 0.25 µg/mL (≈ 0.236 µM)
- MIC ([1]; Clostridioides difficile, C. difficile NR-49282): 0.06 µg/mL (≈ 0.0567 µM)
- MIC ([1]; Clostridioides difficile, C. difficile NR-49283): 0.03 µg/mL (≈ 0.0284 µM)
- MIC ([1]; Clostridioides difficile, C. difficile NR-49284): 0.06 µg/mL (≈ 0.0567 µM)
- MIC ([1]; Clostridioides difficile, C. difficile NR-49285): 0.06 µg/mL (≈ 0.0567 µM)
- MIC ([1]; Clostridioides difficile, C. difficile NR-49286): 0.25 µg/mL (≈ 0.236 µM)
- MIC ([1]; Clostridioides difficile, C. difficile NR-49287): 0.25 µg/mL (≈ 0.236 µM)
- MIC ([1]; Clostridioides difficile, C. difficile NR-49288): 0.25 µg/mL (≈ 0.236 µM)
- MIC ([1]; Clostridioides difficile, C. difficile NR-49289): 0.03 µg/mL (≈ 0.0284 µM)
- MIC ([1]; Clostridioides difficile, C. difficile NR-49290): 0.06 µg/mL (≈ 0.0567 µM)
- MIC ([1]; Clostridioides difficile, C. difficile NR-49291): 0.25 µg/mL (≈ 0.236 µM)
- MIC ([1]; Clostridioides difficile, C. difficile NR-49293): ≤ 0.03 µg/mL
- MIC ([1]; Clostridioides difficile, C. difficile NR-49295): ≤ 0.03 µg/mL
- MIC ([1]; Clostridioides difficile, C. difficile NR-49296): ≤ 0.03 µg/mL
- MIC ([1]; Clostridioides difficile, C. difficile NR-49297): 0.0125 µg/mL (≈ 0.0118 µM)
- MIC ([1]; Clostridioides difficile, C. difficile NR-49300): 0.03 µg/mL (≈ 0.0284 µM)
- MIC ([1]; Clostridioides difficile, C. difficile NR-49301): 0.03 µg/mL (≈ 0.0284 µM)
- MIC ([1]; Clostridioides difficile, C. difficile NR-49303): 0.03 µg/mL (≈ 0.0284 µM)
- MIC ([1]; Clostridioides difficile, C. difficile NR-49304): 0.06 µg/mL (≈ 0.0567 µM)
- MIC ([1]; Clostridioides difficile, C. difficile NR-49306): 0.03 µg/mL (≈ 0.0284 µM)
- MIC ([1]; Clostridioides difficile, C. difficile NR-49307): 0.03 µg/mL (≈ 0.0284 µM)
- MIC ([1]; Clostridioides difficile, C. difficile NR-49309): 0.03 µg/mL (≈ 0.0284 µM)
- MIC ([1]; Clostridioides difficile, C. difficile NR-49311): 0.03 µg/mL (≈ 0.0284 µM)
- MIC ([1]; Clostridioides difficile, C. difficile NR-49313): 0.03 µg/mL (≈ 0.0284 µM)
- MIC ([1]; Clostridioides difficile, C. difficile NR-49314): 0.25 µg/mL (≈ 0.236 µM)
- MIC ([1]; Clostridioides difficile, C. difficile NR-49315): 0.06 µg/mL (≈ 0.0567 µM)
- MIC ([1]; Clostridioides difficile, C. difficile NR-49317): 0.06 µg/mL (≈ 0.0567 µM)
- MIC ([1]; Clostridioides difficile, C. difficile NR-49323): ≤ 0.03 µg/mL
- MIC ([1]; Clostridioides difficile, C. difficile NR-49324): 0.06 µg/mL (≈ 0.0567 µM)
- MIC ([1]; Clostridioides difficile, C. difficile NR-49325): 0.03 µg/mL (≈ 0.0284 µM)
- MIC ([1]; Clostridioides difficile, C. difficile NR-49326): 0.03 µg/mL (≈ 0.0284 µM)
- MIC ([1]; Clostridioides difficile, C. difficile NR-49327): 0.03 µg/mL (≈ 0.0284 µM)
- MIC ([1]; Clostridioides difficile, C. difficile NR-49328): 0.03 µg/mL (≈ 0.0284 µM)
- MIC ([1]; Clostridioides difficile, C. difficile NR-49329): 0.03 µg/mL (≈ 0.0284 µM)
- MIC50 ([1]; Clostridioides difficile, 101 C. difficile strains): 0.06 µg/mL (≈ 0.0567 µM)
- MIC90 ([1]; Clostridioides difficile, 101 C. difficile strains, read-out: MIC90 (101 strains)): 0.25 µg/mL (≈ 0.236 µM)
- Selectivity ([1]; MIC MRSA NRS70/MIC C. difficile ATCC43255, Table 7): 128
- MIC ([2]; Table 1): < 0.01 µg/mL
- MIC ([2]; Table 7): < 0.01 µg/mL
- MIC [3]: > 128 µg/mL
- MIC ([4]; SP.HM49, Veillonella sp. HM-49, Table 1, read-out: MIC): 8 µg/mL (≈ 7.56 µM)
- MIC ([4]; Veillonella sp. strain HM-49, Table 7): 8 µg/mL (≈ 7.56 µM)
- MIC ([5]; MRSA NRS70, Table 1): 8 µg/mL (≈ 7.56 µM)
- MIC ([5]; MRSA NRS70, Table 7): 8 µg/mL (≈ 7.56 µM)
- MIC ([5]; MRSA NRS119, Table 1): 2 µg/mL (≈ 1.89 µM)
- MIC ([6]; Lactobacillus reuteri strain HM-102, Table 7): >32 µg/mL
- MIC ([6]; Limosilactobacillus reuteri, Lactobacillus reuter strain HM-102, Table 1, read-out: MIC): > 32 µg/mL
- MIC ([7]; Table 1): < 0.06 µg/mL
- MIC ([7]; Table 7): < 0.0625 µg/mL
- MIC ([8]; Lactobacillus gasseri strain HM-644, Table 7): 2 µg/mL (≈ 1.89 µM)
- MIC ([8]; Lactobacillus gasseri, Lactobacillus gasser strain HM-644, Table 1, read-out: MIC): 2 µg/mL (≈ 1.89 µM)
- MIC [9]: 8 µg/mL (≈ 7.56 µM)
- MIC ([10]; Table 1): < 0.06 µg/mL
- MIC ([10]; Table 7): < 0.0625 µg/mL
- MIC ([11]; Table 1): 16 µg/mL (≈ 15.1 µM)
- MIC ([11]; Table 7): 16 µg/mL (≈ 15.1 µM)
